“Also recorded” adds a separate entry of the source.
Legend:
lung cancer = conditions: phase II study, lung cancer (Spigel et al., 2013); cited from earlier work
wtMET = target: T1, wtMET (Homo sapiens, UniProt P08581); experiment: MET phosphorylation in serum-starved A549 cells (western blot); assay type: cell-based; conditions: FIG. 1B, FIG. 5
T1 construct: in A549 cells the matured, cleaved MET protein was the predominant form; endogenous in cells; host or cells: A549 cells, serum-starved
Method: (§1) All cell lines were maintained at 37° C. in the presence of 5% CO2. To examine HGF-induced MET activation, E98 and A549 cells were seeded in 6 wells plates. The next day cells were serum-starved overnight. The following day cells were treated for 10 minutes (min) with HGF (50 ng/mL, Miltenyi Biotec, Bergisch Gladbach, Germany).
(§2) Cell lysates were prepared using RIPA buffer containing protease and phosphatase inhibitors (Cell Signaling Technology, CST, Danvers, Mass., USA). RIPA extracts (20-40 μg per lane) and His-tagged proteins from conditioned media (equivalent of 20 μl conditioned medium) were subjected to PAGE on 8-10% polyacrylamide gels and western blotting according to standard procedures. Nitrocellulose blots (Whatman Optitran BA-S85, GE Healthcare, Little Chalfont, UK) were blocked with PBS/Odyssey Blocking Buffer (LI-COR Biosciences, Lincoln, Nebr., USA) (1:1), followed by overnight incubation with primary antibodies at 4° C. […] Biotin groups and primary antibodies were visualized using respectively streptavidin-680 (Molecular Probes, Life Technology) and appropriate secondary antibodies [goat-anti-rabbit-IRDye800 (Rockland Immunochemicals, Gilbertsville, Pa., USA) or Alexa Fluor 680 goat-anti-mouse IgG (Molecular Probes, Life Technologies)]. Blots were scanned on the Odyssey imager (LI-COR Biosciences).

AKT [1] = experiment: AKT phosphorylation in E98 cells (western blot); assay type: cell-based, human; conditions: serum-starved E98 cells; FIG. 5
Method: (§3) The E98 cell line and xenograft model and genetic analysis thereof have been described before (Caretti et al., 2011; Claes et al., 2008). E98, U87, A549, HEK-293T and TOV-112D cells were cultured in DMEM+4.5 g/L glucose medium (PAA Laboratories, Pasching, Austria) supplemented with 10% fetal calf serum (FCS) (PAA) and gentamycin (40 μg/mL). All cell lines were maintained at 37° C. in the presence of 5% CO2. To examine HGF-induced MET activation, E98 and A549 cells were seeded in 6 wells plates. The next day cells were serum-starved overnight. The following day cells were treated for 10 minutes (min) with HGF (50 ng/mL, Miltenyi Biotec, Bergisch Gladbach, Germany). In some experiments, prior to HGF incubation cells were incubated with the anti-MET llama VHH G2 (Heukers et al., 2014) or cabozantinib (XL-184, Exelixis, San Francisco, Calif.) for 60 min.
(§4) Cell lysates were prepared using RIPA buffer containing protease and phosphatase inhibitors (Cell Signaling Technology, CST, Danvers, Mass., USA). RIPA extracts (20-40 μg per lane) and His-tagged proteins from conditioned media (equivalent of 20 μl conditioned medium) were subjected to PAGE on 8-10% polyacrylamide gels and western blotting according to standard procedures. […]

AKT [2] = experiment: AKT phosphorylation in A549 cells (western blot); assay type: cell-based, human; conditions: FIG. 5
Method: as §3, §4

METΔ7-8 = target: T2, METΔ7-8 (Homo sapiens, UniProt P08581, DEL622-701); experiment: MET phosphorylation in serum-starved E98 cells (western blot); assay type: cell-based; conditions: FIG. 5
T2 construct: the majority of MET protein was in a 180 kDa phosphorylated form, corresponding to the uncleaved truncated preform; endogenous in cells; host or cells: E98 glioma cells, serum-starved
Method: as §1, §2

Row | Substance | primary end point of prolonged survival (lung cancer) | MET phosphorylation (wtMET) | levels of pAKT (AKT [1]) | levels of pAKT (AKT [2]) | activation of the minority of processed β-fragment of MET (METΔ7-8) | overall MET phosphorylation levels (METΔ7-8; HGF 50 ng/mL 10 min, G2 or cabozantinib 60 min, FIG. 1B)
1 | MetMab: antibody; MET activation inhibitor tested in a phase II study for lung cancer | failed to meet the primary end point |  |  |  |  | 
2 | HGF: ligand Hepatocyte Growth Factor (HGF, Scatter Factor) of MET |  | required for MET activation; also recorded: induced MET phosphorylation | neither G2 nor HGF treatment resulted in altered levels | increased levels of pAKT | slight activation | did not further increase

Source: patent US11035860B2, “Auto-active and intracellular mutant of MET” (Stichting Katholieke Universiteit, priority 2014, dated 2021)
